Measured values taken from patent publication US10570129B2 (Zoetis Services LLC, priority 2015, dated 2020).

Key:
D. immitis microfilariae = test: Dirofilaria immitis, microfilariae (DiMF) in vitro motility assay; format: cell-based; details: Dirofilaria immitis, 72 h, read-out: DiMF minimally effective dose (MEC)
Haemonchus contortus L3 = test: microbe, parasite or virus in culture; format: cell-based; details: Haemonchus contortus, 96 h, read-out: HcL3 Minimal Effective Concentration (MEC)

Question: Which results are given for N#Cc1ccc2c(c1)c1c(n2C(=O)NCc2ccnc(Cl)c2)CCN(C/C=C/c2ccc(Cl)cc2F)C1 [Example 75, (E)-2-(3-(4-chloro-2-fluorophenyl)allyl)-N-((2-chloropyridin-4-yl)methyl)-8-cyano-1,2,3,4-tetrahydro-5H-pyrido[4,3-b]indole-5-carboxamide]?
Answer: minimal effective concentration (D. immitis microfilariae): 10.2 µM; minimal effective concentration (Haemonchus contortus L3): 0.1 µM

Question: Which minimal effective concentration (D. immitis microfilariae) does the source give for N#Cc1cc2c3c(n(C(=O)NCc4ccnc(Cl)c4)c2cc1OC(F)(F)F)CCN(C/C=C/c1ccc(Cl)cc1)C3 [Example 503, (E)-2-(3-(4-chlorophenyl)allyl)-N-((2-chloropyridin-4-yl)methyl)-8-cyano-7-(trifluoromethoxy)-1,2,3,4-tetrahydro-5H-pyrido[4,3-b]indole-5-carboxamide] here?
Answer: 3.3 µM

Question: And the minimal effective concentration (Haemonchus contortus L3)?
Answer: 33 µM

Question: O=C(NCc1ccnc(Cl)c1)n1c2c(c3cc(Br)c(C(F)(F)F)cc31)CN(C/C=C/c1ccc(Cl)cc1)CC2 [Example 498, (E)-8-bromo-2-(3-(4-chlorophenyl)allyl)-N-((2-chloropyridin-4-yl)methyl)-7-(trifluoromethyl)-1,2,3,4-tetrahydro-5H-pyrido[4,3-b]indole-5-carboxamide] was tested. Which minimal effective concentration (D. immitis microfilariae) did it give?
Answer: 5.7 µM

Question: And the minimal effective concentration (Haemonchus contortus L3)?
Answer: 1.8 µM

Question: Which results are given for N#Cc1ccc2c(c1)c1c(n2C(=O)NCc2ccnc(Cl)c2)CCN(C/C=C/c2c(F)c(F)c(Cl)c(F)c2F)C1 [Example 84, (E)-2-(3-(4-chloro-2,3,5,6-tetrafluorophenyl)allyl)-N-((2-chloropyridin-4-yl)methyl)-8-cyano-1,2,3,4-tetrahydro-5H-pyrido[4,3-b]indole-5-carboxamide]?
Answer: minimal effective concentration (D. immitis microfilariae): > 100 µM; minimal effective concentration (Haemonchus contortus L3): 0.1 µM

Question: With O=C(NCc1ccnc(F)c1)n1c2c(c3cc(Br)ccc31)CN(C/C=C/c1ccc(F)c(F)c1)CC2 [Example 191, (E)-8-bromo-2-(3-(3,4-difluorophenyl)allyl)-N-((2-fluoropyridin-4-yl)methyl)-1,2,3,4-tetrahydro-5H-pyrido[4,3-b]indole-5-carboxamide] as the molecule, how does the minimal effective concentration (D. immitis microfilariae) read?
Answer: 10 µM

Question: And the minimal effective concentration (Haemonchus contortus L3)?
Answer: 0.3 µM

Question: How did the minimal effective concentration (D. immitis microfilariae) turn out when O=C(NCc1ccnc(Cl)c1)n1c2c(c3c(OC(F)(F)F)cccc31)CN(C/C=C/c1ccc(OC(F)(F)F)cc1)CC2 [Example 361, (E)-N-((2-chloropyridin-4-yl)methyl)-9-(trifluoromethoxy)-2-(3-(4-(trifluoro-methoxy)phenyl)allyl)-1,2,3,4-tetrahydro-5H-pyrido[4,3-b]indole-5-carboxamide] was run?
Answer: 57.4 µM

Question: And the minimal effective concentration (Haemonchus contortus L3)?
Answer: > 100 µM

Question: With O=C(NCc1ccnc(F)c1)n1c2c(c3c(Cl)c(Cl)ccc31)CN(C/C=C/c1ccc(Cl)cc1)CC2 [Example 293, (E)-8,9-dichloro-2-(3-(4-chlorophenyl)allyl)-N-((2-fluoropyridin-4-yl)methyl)-1,2,3,4-tetrahydro-5H-pyrido[4,3-b]indole-5-carboxamide] as the molecule, how does the minimal effective concentration (D. immitis microfilariae) read?
Answer: 5.7 µM

Question: And the minimal effective concentration (Haemonchus contortus L3)?
Answer: 3.3 µM

Question: How did the minimal effective concentration (D. immitis microfilariae) turn out when O=C(NCc1ccnc(Cl)c1)n1c2c(c3cc(F)c(Cl)cc31)CN(C/C=C/c1ccc(Cl)c(F)c1)CC2 [Example 297, (E)-7-chloro-2-(3-(4-chloro-3-fluorophenyl)allyl)-N-((2-chloropyridin-4-yl)methyl)-8-fluoro-1,2,3,4-tetrahydro-5H-pyrido[4,3-b]indole-5-carboxamide] was run?
Answer: > 100 µM

Question: What about the minimal effective concentration (Haemonchus contortus L3) of the same molecule?
Answer: 0.3 µM

Question: Which results are given for N#Cc1ccc(/C=C/CN2CCc3c(c4ccc(Br)cc4n3C(=O)NCc3ccnc(Cl)c3)C2)cc1F [Example 438, (E)-7-bromo-N-((2-chloropyridin-4-yl)methyl)-2-(3-(4-cyano-3-fluorophenyl)allyl)-1,2,3,4-tetrahydro-5H-pyrido[4,3-b]indole-5-carboxamide]?
Answer: minimal effective concentration (D. immitis microfilariae): 18.2 µM; minimal effective concentration (Haemonchus contortus L3): > 100 µM

Question: Which minimal effective concentration (D. immitis microfilariae) does the source give for CSc1cc2c3c(n(C(=O)NCc4ccnc(Cl)c4)c2cc1C#N)CCN(C/C=C/c1ccc(Cl)cc1)C3 [Example 491, (E)-2-(3-(4-chlorophenyl)allyl)-N-((2-chloropyridin-4-yl)methyl)-7-cyano-8-(methylthio)-1,2,3,4-tetrahydro-5H-pyrido[4,3-b]indole-5-carboxamide] here?
Answer: 18.2 µM

Question: What about the minimal effective concentration (Haemonchus contortus L3) of the same molecule?
Answer: 1 µM

Question: How did the minimal effective concentration (D. immitis microfilariae) turn out when O=C(NCc1ccnc(Cl)c1)n1c2c(c3ccc(OC(F)(F)F)cc31)CN(C/C=C/c1ccc(OC(F)(F)F)cc1)CC2 [Example 360, (E)-N-((2-chloropyridin-4-yl)methyl)-7-(trifluoromethoxy)-2-(3-(4-(trifluoro-methoxy)phenyl)allyl)-1,2,3,4-tetrahydro-5H-pyrido[4,3-b]indole-5-carboxamide] was run?
Answer: 13.6 µM

Question: And the minimal effective concentration (Haemonchus contortus L3)?
Answer: 7.7 µM

Question: Which results are given for O=C(NCc1ccnc(Cl)c1)n1c2c(c3ccc(Cl)cc31)CN(C/C=C/c1ccc(F)cc1F)CC2 [Example 209, (E)-7-chloro-N-((2-chloropyridin-4-yl)methyl)-2-(3-(2,4-difluorophenyl)-allyl)-1,2,3,4-tetrahydro-5H-pyrido[4,3-b]indole-5-carboxamide]?
Answer: minimal effective concentration (D. immitis microfilariae): 33 µM; minimal effective concentration (Haemonchus contortus L3): > 100 µM

Question: N#Cc1ccc2c3c(n(C(=O)NCc4ccnc(Cl)c4)c2c1)CCN(C/C=C/c1ccc(Br)c(F)c1)C3 [Example 8, (E)-2-(3-(4-bromo-3-fluorophenyl)allyl)-N-((2-chloropyridin-4-yl)methyl)-7-cyano-1,2,3,4-tetrahydro-5H-pyrido[4,3-b]indole-5-carboxamide] was tested. Which minimal effective concentration (D. immitis microfilariae) did it give?
Answer: 18.2 µM

Question: And the minimal effective concentration (Haemonchus contortus L3)?
Answer: 0.5 µM

Question: With Cc1cccc2c1c1c(n2C(=O)NCc2ccnc(Cl)c2)CCN(C/C=C/c2ccc(F)cc2)C1 [Example 149, (E)-N-((2-chloropyridin-4-yl)methyl)-2-(3-(4-fluorophenyl)allyl)-9-methyl-1,2,3,4-tetrahydro-5H-pyrido[4,3-b]indole-5-carboxamide] as the molecule, how does the minimal effective concentration (D. immitis microfilariae) read?
Answer: 10 µM

Question: And the minimal effective concentration (Haemonchus contortus L3)?
Answer: 4.4 µM

Question: For N#Cc1ccc(/C=C/CN2CCc3c(c4cc(F)ccc4n3C(=O)NCc3ccnc(Cl)c3)C2)cc1 [Example 168, (E)-N-((2-chloropyridin-4-yl)methyl)-2-(3-(4-cyanophenyl)allyl)-8-fluoro-1,2,3,4-tetrahydro-5H-pyrido[4,3-b]indole-5-carboxamide], which minimal effective concentration (D. immitis microfilariae) is on record?
Answer: 10 µM

Question: What about the minimal effective concentration (Haemonchus contortus L3) of the same molecule?
Answer: 0.5 µM

Question: O=C(NCc1ccnc(Cl)c1)n1c2c(c3cc(Cl)ccc31)CN(C/C=C/c1ccc(Cl)cc1)CC2 [Example 242, (E)-8-chloro-2-(3-(4-chlorophenyl)allyl)-N-((2-chloropyridin-4-yl)methyl)-1,2,3,4-tetrahydro-5H-pyrido[4,3-b]indole-5-carboxamide] was tested. Which minimal effective concentration (D. immitis microfilariae) did it give?
Answer: 10 µM

Question: What about the minimal effective concentration (Haemonchus contortus L3) of the same molecule?
Answer: 0.7 µM

Question: With O=C(NCc1ccnc(Cl)c1)n1c2c(c3c(Cl)cccc31)CN(C/C=C/c1ccc(Cl)cc1)CC2 [Example 214, (E)-9-chloro-2-(3-(4-chlorophenyl)allyl)-N-((2-chloropyridin-4-yl)methyl)-1,2,3,4-tetrahydro-5H-pyrido[4,3-b]indole-5-carboxamide] as the molecule, how does the minimal effective concentration (D. immitis microfilariae) read?
Answer: 18.2 µM

Question: And the minimal effective concentration (Haemonchus contortus L3)?
Answer: 0.5 µM

Question: Which results are given for N#Cc1ccc2c3c(n(C(=O)NCc4ccnc(Cl)c4)c2c1)CCN(C/C=C/c1ccc(Cl)c(F)c1F)C3 [Example 15, (E)-2-(3-(4-chloro-2,3-difluorophenyl)allyl)-N-((2-chloropyridin-4-yl)methyl)-7-cyano-1,2,3,4-tetrahydro-5H-pyrido[4,3-b]indole-5-carboxamide]?
Answer: minimal effective concentration (D. immitis microfilariae): > 100 µM; minimal effective concentration (Haemonchus contortus L3): 1 µM

Question: With O=C(NCc1ccnc(Cl)c1)n1c2c(c3cc(OC(F)(F)F)c(Br)cc31)CN(C/C=C/c1ccc(Cl)cc1)CC2 [Example 497, (E)-7-bromo-2-(3-(4-chlorophenyl)allyl)-N-((2-chloropyridin-4-yl)methyl)-8-(trifluoromethoxy)-1,2,3,4-tetrahydro-5H-pyrido[4,3-b]indole-5-carboxamide] as the molecule, how does the minimal effective concentration (D. immitis microfilariae) read?
Answer: 5.7 µM

Question: And the minimal effective concentration (Haemonchus contortus L3)?
Answer: 1 µM

Question: What does the source list for N#Cc1ccc2c3c(n(C(=O)NCc4ccnc(Cl)c4)c2c1)CCN(C/C=C/c1cccc(Cl)c1F)C3 [Example 31, (E)-2-(3-(3-chloro-2-fluorophenyl)allyl)-N-((2-chloropyridin-4-yl)methyl)-7-cyano-1,2,3,4-tetrahydro-5H-pyrido[4,3-b]indole-5-carboxamide]?
Answer: minimal effective concentration (D. immitis microfilariae): > 100 µM; minimal effective concentration (Haemonchus contortus L3): 1 µM

Question: With O=C(NCc1ccnc(F)c1)n1c2c(c3cc(Cl)ccc31)CN(C/C=C/c1ccc(Cl)cc1)CC2 [Example 260, (E)-8-chloro-2-(3-(4-chlorophenyl)allyl)-N-((2-fluoropyridin-4-yl)methyl)-1,2,3,4-tetrahydro-5H-pyrido[4,3-b]indole-5-carboxamide] as the molecule, how does the minimal effective concentration (D. immitis microfilariae) read?
Answer: 10 µM

Question: What about the minimal effective concentration (Haemonchus contortus L3) of the same molecule?
Answer: 0.4 µM

Question: Which results are given for O=C(NCc1ccnc(F)c1)n1c2c(c3cc(Cl)ccc31)CN(C/C=C/c1ccc(F)c(Cl)c1)CC2 [Example 258, (E)-8-chloro-2-(3-(3-chloro-4-fluorophenyl)allyl)-N-((2-fluoropyridin-4-yl)methyl)-1,2,3,4-tetrahydro-5H-pyrido[4,3-b]indole-5-carboxamide]?
Answer: minimal effective concentration (D. immitis microfilariae): 100 µM; minimal effective concentration (Haemonchus contortus L3): 10 µM

Question: Cc1cc2c(cc1Br)c1c(n2C(=O)NCc2ccnc(Cl)c2)CCN(C/C=C/c2ccc(Cl)cc2)C1 [Example 194, (E)-8-bromo-2-(3-(4-chlorophenyl)allyl)-N-((2-chloropyridin-4-yl)methyl)-7-methyl-1,2,3,4-tetrahydro-5H-pyrido[4,3-b]indole-5-carboxamide] was tested. Which minimal effective concentration (D. immitis microfilariae) did it give?
Answer: 5.7 µM

Question: What about the minimal effective concentration (Haemonchus contortus L3) of the same molecule?
Answer: 0.4 µM

Question: For O=C(NCc1ccnc(Cl)c1)n1c2c(c3ccc(Cl)cc31)CN(C/C=C/c1ccc(C(F)(F)F)cc1)CC2 [Example 223, (E)-7-chloro-N-((2-chloropyridin-4-yl)methyl)-2-(3-(4-(trifluoromethyl)-phenyl)allyl)-1,2,3,4-tetrahydro-5H-pyrido[4,3-b]indole-5-carboxamide], which minimal effective concentration (D. immitis microfilariae) is on record?
Answer: 3.3 µM

Question: And the minimal effective concentration (Haemonchus contortus L3)?
Answer: 10 µM

Question: How did the minimal effective concentration (D. immitis microfilariae) turn out when COc1ccc(/C=C/CN2CCc3c(c4cccc(Cl)c4n3C(=O)NCc3ccnc(Cl)c3)C2)cc1 [Example 270, (E)-6-chloro-N-((2-chloropyridin-4-yl)methyl)-2-(3-(4-methoxyphenyl)allyl)-1,2,3,4-tetrahydro-5H-pyrido[4,3-b]indole-5-carboxamide] was run?
Answer: 10 µM

Question: What about the minimal effective concentration (Haemonchus contortus L3) of the same molecule?
Answer: > 100 µM
